What was measured:
human GlyT1c transporter = target: T1, human GlyT1c transporter (Homo sapiens, UniProt P48067); assay: [3H]-(R)-NPTS radioligand binding assay using recombinant hGlyT1 expressing cell membranes; details: 0.5 nM [3H]-(R)-NPTS, apparent Ki via Cheng-Prusoff, read-out: [3H]-(R)-NPTS bindung Ki
T1 construct: expressed in transfected cells; host or cells: recombinant hGlyT1-expressing cells
T1 sequence (P48067 1-706): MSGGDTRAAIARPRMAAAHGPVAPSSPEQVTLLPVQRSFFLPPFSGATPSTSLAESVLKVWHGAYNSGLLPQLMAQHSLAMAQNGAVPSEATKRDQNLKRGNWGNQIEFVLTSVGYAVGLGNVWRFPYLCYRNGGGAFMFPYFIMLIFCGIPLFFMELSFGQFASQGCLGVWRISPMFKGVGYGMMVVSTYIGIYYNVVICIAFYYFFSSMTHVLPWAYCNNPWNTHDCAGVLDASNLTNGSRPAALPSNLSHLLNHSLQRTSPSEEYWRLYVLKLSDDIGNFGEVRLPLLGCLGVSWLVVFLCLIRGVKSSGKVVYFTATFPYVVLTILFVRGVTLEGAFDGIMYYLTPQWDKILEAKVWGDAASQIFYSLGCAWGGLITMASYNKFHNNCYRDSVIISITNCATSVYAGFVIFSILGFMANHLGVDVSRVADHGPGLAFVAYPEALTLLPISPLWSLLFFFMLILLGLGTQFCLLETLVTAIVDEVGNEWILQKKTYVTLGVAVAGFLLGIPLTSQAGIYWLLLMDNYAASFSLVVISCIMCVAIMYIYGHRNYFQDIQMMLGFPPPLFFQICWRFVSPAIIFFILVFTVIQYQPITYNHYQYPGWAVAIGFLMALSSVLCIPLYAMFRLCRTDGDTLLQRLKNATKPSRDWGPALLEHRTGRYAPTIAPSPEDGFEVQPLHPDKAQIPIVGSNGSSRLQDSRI
Summary of the method: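 Membranes expressing human GlyT1c (50 μg/ml protein) were incubated with 0.5 nM [3H]-(R)-NPTS in pH 7.5 HEPES/NaCl buffer with 1% DMSO for 1 h at room temperature, then filtered. Non-specific binding was defined with 10 μM Org24598, and IC50 values were converted to apparent Ki by Cheng-Prusoff.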

Human GlyT1c = target: T2, Human GlyT1c (Homo sapiens, UniProt P48067); assay: Glycine uptake in recombinant hGlyT1 expressing cells; type: cell-based; details: hGlyT1c_5_CHO cells; [3H]-glycine uptake, 60-120 min
T2 construct: expressed in transfected cells; host or cells: CHO (hGlyT1c_5_CHO clone)
T2 sequence (P48067 1-706): T1 sequence (P48067 1-706)
Summary of the method: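 Recombinant hGlyT1c CHO cells were washed in HBSS with 5 mM L-alanine, then given inhibitor and [3H]-glycine. Uptake was counted continuously by solid-phase scintillation for up to 3 h, with nonspecific uptake defined by 10 μM Org24598. IC50 came from four-parameter logistic fits over the linear 60–120 min range.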

| SMILES | Ki (human GlyT1c transporter) | IC50 (Human GlyT1c) |
| --- | --- | --- |
| CSc1cccc2c(NCc3ccc(F)c(F)c3)cc(C)nc12 [Example 86, (3,4-Difluorobenzyl)-(2-methyl-8-methylsulfanylquinolin-4-yl)-amine] | ≤ 1 µM | ≤ 1 µM |
| Cc1cc(NCc2ccc(Cl)c(Cl)c2)c2cccc(C)c2n1 [Example 87, (3,4-Dichlorobenzyl)-(2-methyl-8-methylquinolin-4-yl)-amine] | ≤ 0.1 µM | ≤ 0.1 µM |
| CSc1cccc2c(NCc3ccc(Cl)c(Cl)c3)cc(C)nc12 [Example 88, (3,4-Dichlorobenzyl)-(2-methyl-8-methylsulfanylquinolin-4-yl)-amine] | ≤ 0.1 µM | ≤ 0.1 µM |
| Cc1cc(NCc2ccc(Cl)c(Cl)c2)c2ccccc2n1 [Example 89, (3,4-Dichlorobenzyl)-(2-methylquinolin-4-yl)-amine] | ≤ 0.1 µM | ≤ 1 µM |
| Cc1cc(NCc2ccc(F)cc2)c2ccccc2n1 [Example 90, (4-Fluorobenzyl)-(2-methylquinoline-4-yl)-amine] | ≤ 1 µM | ≤ 1 µM |
| Cc1cc(NCc2cccc(Cl)c2Cl)c2ccccc2n1 [Example 91, (2,3-Dichloro-benzyl)-(2-methylquinolin-4-yl)-amine] | ≤ 10 µM | ≤ 10 µM |
| Cc1cc(NCc2ccc(Cl)c(Cl)c2)c2cccc([S+](C)[O-])c2n1 (stereo not shown) [Example 92, (3,4-Dichlorobenzyl)-(8-methanesulfinyl-2-methylquinolin-4-yl)-amine] | ≤ 1 µM | ≤ 1 µM |
| Cc1cc(NCc2ccc(Cl)c(Cl)c2)c2cccc(S(C)(=O)=O)c2n1 [Example 93, (3,4-Dichlorobenzyl)-(8-methanesulfonyl-2-methylquinolin-4-yl)-amine] | ≤ 1 µM | ≤ 10 µM |
| CN(C)c1cc(NCc2ccccc2)c2ccccc2n1 [Example 94, N*4*-Benzyl-N*2*,N*2*-dimethylquinoline-2,4-diamine] | ≤ 10 µM | ≤ 100 µM |
| CN(C)c1cc(NCc2ccc(Cl)c(Cl)c2)c2ccccc2n1 [Example 95, N*4*-(3,4-Dichlorobenzyl)-N*2*,N*2*-dimethylquinoline-2,4-diamine] | ≤ 0.1 µM | ≤ 0.1 µM |
| CN(C)c1cc(NCc2ccc(Cl)cc2Cl)c2ccccc2n1 [Example 96, N*4*-(2,4-Dichlorobenzyl)-N*2*,N*2*-dimethylquinoline-2,4-diamin] | ≤ 1 µM | ≤ 10 µM |
